SMILES strings stand for the structures.

The target of one experiment is JH2 domain of human Tyk2 (Homo sapiens (Human), UniProt P29597). In words: JH2 Biochemical Assay (TR-FRET probe displacement). Type of experiment: binding. Conditions: JH2 domain of human Tyk2, TR-FRET probe displacement. On the technique in general: Time-resolved FRET reads energy transfer from a long-lived donor to a nearby acceptor.
In the next experiment the target is Tyk2 (Homo sapiens (Human), UniProt P29597). Put plainly: pSTAT4 Cell Assay (MSD, NK92 cells). Type of experiment: cell-based. Conditions: MSD.
Tyk2, sequence (P29597 whole entry): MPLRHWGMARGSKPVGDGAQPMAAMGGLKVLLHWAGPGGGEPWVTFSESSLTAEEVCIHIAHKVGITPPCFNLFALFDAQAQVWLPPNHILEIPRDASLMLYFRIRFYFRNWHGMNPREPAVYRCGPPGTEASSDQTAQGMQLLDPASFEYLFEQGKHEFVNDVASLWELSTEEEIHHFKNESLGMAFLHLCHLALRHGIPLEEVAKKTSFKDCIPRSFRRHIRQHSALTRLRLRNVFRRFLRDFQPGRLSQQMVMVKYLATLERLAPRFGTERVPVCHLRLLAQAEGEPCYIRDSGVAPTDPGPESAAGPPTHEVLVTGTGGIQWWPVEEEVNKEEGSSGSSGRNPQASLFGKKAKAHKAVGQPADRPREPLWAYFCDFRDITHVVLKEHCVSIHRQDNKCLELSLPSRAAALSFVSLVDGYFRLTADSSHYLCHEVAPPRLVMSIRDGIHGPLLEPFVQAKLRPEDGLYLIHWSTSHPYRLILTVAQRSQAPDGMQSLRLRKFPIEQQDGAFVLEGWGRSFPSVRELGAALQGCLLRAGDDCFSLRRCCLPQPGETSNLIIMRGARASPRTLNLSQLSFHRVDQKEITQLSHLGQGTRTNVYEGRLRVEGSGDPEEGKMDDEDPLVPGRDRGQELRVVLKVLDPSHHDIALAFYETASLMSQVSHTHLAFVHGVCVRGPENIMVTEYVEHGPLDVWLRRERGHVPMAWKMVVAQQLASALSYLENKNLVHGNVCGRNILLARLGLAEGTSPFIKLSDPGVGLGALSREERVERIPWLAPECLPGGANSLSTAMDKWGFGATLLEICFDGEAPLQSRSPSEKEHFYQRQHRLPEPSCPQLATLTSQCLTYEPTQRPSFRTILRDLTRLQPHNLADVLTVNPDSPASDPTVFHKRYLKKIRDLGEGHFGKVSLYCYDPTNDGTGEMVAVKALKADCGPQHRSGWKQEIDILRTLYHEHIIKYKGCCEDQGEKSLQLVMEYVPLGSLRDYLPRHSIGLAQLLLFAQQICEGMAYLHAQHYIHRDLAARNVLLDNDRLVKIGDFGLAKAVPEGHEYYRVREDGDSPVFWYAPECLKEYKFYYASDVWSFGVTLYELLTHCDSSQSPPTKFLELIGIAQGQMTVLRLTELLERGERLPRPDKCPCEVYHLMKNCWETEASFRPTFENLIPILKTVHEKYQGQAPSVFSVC

JH2 domain of human Tyk2, sequence (P29597 575-876): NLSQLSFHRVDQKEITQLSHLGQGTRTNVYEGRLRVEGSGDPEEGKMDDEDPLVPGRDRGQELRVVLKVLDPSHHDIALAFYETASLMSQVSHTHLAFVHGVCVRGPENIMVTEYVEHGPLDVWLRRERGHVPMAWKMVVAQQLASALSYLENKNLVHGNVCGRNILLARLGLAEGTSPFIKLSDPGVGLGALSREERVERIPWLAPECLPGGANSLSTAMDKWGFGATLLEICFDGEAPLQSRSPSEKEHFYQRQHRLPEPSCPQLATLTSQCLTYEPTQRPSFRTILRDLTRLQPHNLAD

In the case of `COc1cccc(-c2cnc(NC(C)=O)cc2Nc2cc(C)nc(C(C)(F)F)n2)n1` [Example 635, N-(4′-((2-(1,1-difluoroethyl)-6-methylpyrimidin-4-yl)amino)-6-methoxy-[2,3′-bipyridin]-6′-yl)acetamide], the IC50 at JH2 domain of human Tyk2 and against Tyk2 was no more than 10 nM throughout.

Regarding `COc1ccc(-c2cnc(NC(C)=O)cc2Nc2cc(C)nc(C(C)(F)F)n2)nc1OC` [Example 637, N-(4′-((2-(1,1-difluoroethyl)-6-methylpyrimidin-4-yl)amino)-5,6-dimethoxy-[2,3′-bipyridin]-6′-yl)acetamide], the IC50 on JH2 domain of human Tyk2 and against Tyk2 was no more than 10 nM each time.

With `CC(=O)Nc1cc(Nc2cc(C)nc(C(C)(F)F)n2)c(-c2cccc(C3CN(C)CCO3)n2)cn1` (centres unmarked) [Example 640, N-(4′-((2-(1,1-difluoroethyl)-6-methylpyrimidin-4-yl)amino)-6-(4-methylmorpholin-2-yl)-[2,3′-bipyridin]-6′-yl)acetamide], the concentration for half-maximal inhibition (IC50) at JH2 domain of human Tyk2 and against Tyk2 was no more than 10 nM throughout.

Regarding `CC(=O)Nc1cc(Nc2cc(C)nc(C(C)(F)F)n2)c(-c2cccc(C3CCCCO3)n2)cn1` (centres unmarked) [Example 647, N-(4′-((2-(1,1-difluoroethyl)-6-methylpyrimidin-4-yl)amino)-6-(tetrahydro2H-pyran-2-yl)-[2,3′-bipyridin]-6′-yl)acetamide], the half-maximal inhibitory concentration (IC50) on JH2 domain of human Tyk2 and on Tyk2 was no more than 10 nM in each case.

In the case of `CC(=O)Nc1cc(Nc2cc(C)nc(C(C)(F)F)n2)c(-c2ccc(CN3CCOCC3)cn2)cn1` [Example 649, N-(4′-((2-(1,1-difluoroethyl)-6-methylpyrimidin-4-yl)amino)-5-(morpholinomethyl)-[2,3′-bipyridin]-6′-yl)acetamide], the concentration for half-maximal inhibition (IC50) on JH2 domain of human Tyk2 and against Tyk2 was no more than 10 nM in each case.

With `CC(=O)Nc1cc(Nc2cc(C)nc(C(C)(F)F)n2)c(-c2cccc(CN3CCOCC3)n2)cn1` [Example 650, N-(4′-((2-(1,1-difluoroethyl)-6-methylpyrimidin-4-yl)amino)-6-(morpholinomethyl)-[2,3′-bipyridin]-6′-yl)acetamide], the concentration for half-maximal inhibition (IC50) on JH2 domain of human Tyk2 and against Tyk2 was no more than 10 nM each time.

For the compound `CC(=O)Nc1cc(Nc2cc(C)nc(C(C)(F)F)n2)c(-c2cccc(C(C)(C)C#N)n2)cn1` [Example 654, N-(6-(2-cyanopropan-2-yl)-4′-((2-(1,1-difluoroethyl)-6-methylpyrimidin-4-yl)amino)-[2,3′-bipyridin]-6′-yl)acetamide], the 50% inhibitory concentration (IC50) on JH2 domain of human Tyk2 and at Tyk2 was no more than 10 nM each time.

With `COc1cnc(-c2cnc(NC(C)=O)cc2Nc2cc(C)nc(C(C)(F)F)n2)nc1` [Example 656, N-(4-((2-(1,1-difluoroethyl)-6-methylpyrimidin-4-yl)amino)-5-(5-methoxypyrimidin-2-yl)pyridin-2-yl)acetamide], the IC50 at JH2 domain of human Tyk2 and against Tyk2 was no more than 10 nM throughout.

For `CC(=O)Nc1cc(Nc2cc(C)nc(C(C)(F)F)n2)c(-c2nc(C)cc(C#N)n2)cn1` [Example 657, N-(5-(4-cyanO6-methylpyrimidin-2-yl)-4-((2-(1,1-difluoroethyl)-6-methylpyrimidin-4-yl)amino)pyridin-2-yl)acetamide], the IC50 (usually the point on the concentration scale where inhibition reaches its midpoint) was 10 to 100 nM at JH2 domain of human Tyk2 and 100 to 1000 nM against Tyk2.

As for `CC(=O)Nc1cc(Nc2cc(C)nc(C(C)(F)F)n2)c(-c2cnc(COC(F)F)cn2)cn1` [Example 662, N-(4-((2-(1,1-difluoroethyl)-6-methylpyrimidin-4-yl)amino)-5-(5-((difluoromethoxy)methyl)pyrazin-2-yl)pyridin-2-yl)acetamide], the IC50 at JH2 domain of human Tyk2 is no more than 10 nM; against Tyk2 it was 10 to 100 nM.

In the case of `COc1nc(-c2cnc(NC(C)=O)cc2Nc2cc(C)nc(C(C)(F)F)n2)ncc1C` [Example 663, N-(4-((2-(1,1-difluoroethyl)-6-methylpyrimidin-4-yl)amino)-5-(4-methoxy-5-methylpyrimidin-2-yl)pyridin-2-yl)acetamide], the figures for the IC50 on JH2 domain of human Tyk2 and against Tyk2 were 10 to 100 nM and no less than 1000 nM, respectively.

For `COCc1cc(-c2cnc(NC(C)=O)cc2Nc2cc(C)nc(C(C)(F)F)n2)ncn1` [Example 665, N-(4-((2-(1,1-difluoroethyl)-6-methylpyrimidin-4-yl)amino)-5-(6-(methoxymethyl)pyrimidin-4-yl)pyridin-2-yl)acetamide], the results for the 50% inhibitory concentration (IC50) on JH2 domain of human Tyk2 and on Tyk2 were no more than 10 nM and 10 to 100 nM, respectively.

As for `CC(=O)Nc1cc(Nc2cc(C)nc(C(C)(F)F)n2)c(-c2nccc(C3CC3)n2)cn1` [Example 666, N-(5-(4-cyclopropylpyrimidin-2-yl)-4-((2-(1,1-difluoroethyl)-6-methylpyrimidin-4-yl)amino)pyridin-2-yl)acetamide], the IC50 on JH2 domain of human Tyk2 is no more than 10 nM; against Tyk2, 100 to 1000 nM.

For the compound `CC(=O)Nc1cc(Nc2cc(C)nc(C(C)(F)F)n2)c(-c2cncc(C3CC3)n2)cn1` [Example 667, N-(5-(6-cyclopropylpyrazin-2-yl)-4-((2-(1,1-difluoroethyl)-6-methylpyrimidin-4-yl)amino)pyridin-2-yl)acetamide], the half-maximal inhibitory concentration (IC50) at JH2 domain of human Tyk2 is no more than 10 nM; on Tyk2, 10 to 100 nM.

Consider `CC(=O)Nc1cc(Nc2cc(C)nc(C(C)(F)F)n2)c(-c2ncc(Cl)cn2)cn1` [Example 669, N-(5-(5-chloropyrimidin-2-yl)-4-((2-(1,1-difluoroethyl)-6-methylpyrimidin-4-yl)amino)pyridin-2-yl)acetamide], for which the concentration for half-maximal inhibition (IC50) at JH2 domain of human Tyk2 is no more than 10 nM; on Tyk2, 10 to 100 nM.

Regarding `CC(=O)Nc1cc(Nc2cc(C)nc(C(C)(F)F)n2)c(-c2ncc(C(F)F)cn2)cn1` [Example 670, N-(4-((2-(1,1-difluoroethyl)-6-methylpyrimidin-4-yl)amino)-5-(5-(difluoromethyl)pyrimidin-2-yl)pyridin-2-yl)acetamide], the IC50 is no more than 10 nM at JH2 domain of human Tyk2 and 10 to 100 nM on Tyk2.

With `CC(=O)Nc1cc(Nc2cc(C)nc(C(C)(F)F)n2)c(-c2nccc(C)n2)cn1` [Example 671, N-(4-((2-(1,1-difluoroethyl)-6-methylpyrimidin-4-yl)amino)-5-(4-methylpyrimidin-2-yl)pyridin-2-yl)acetamide], the half-inhibitory concentration (IC50) was no more than 10 nM at JH2 domain of human Tyk2 and 10 to 100 nM against Tyk2.

For the compound `COCc1cnc(-c2cnc(NC(C)=O)cc2Nc2cc(C)nc(C(C)(F)F)n2)nc1` [Example 672, N-(4-((2-(1,1-difluoroethyl)-6-methylpyrimidin-4-yl)amino)-5-(5-(methoxymethyl)pyrimidin-2-yl)pyridin-2-yl)acetamide], the concentration for half-maximal inhibition (IC50) at JH2 domain of human Tyk2 and on Tyk2 was no more than 10 nM each time.

`CC(=O)Nc1cc(Nc2cc(C)nc(C(C)(F)F)n2)c(-c2ncc(F)c(C)n2)cn1` [Example 673, N-(4-((2-(1,1-difluoroethyl)-6-methylpyrimidin-4-yl)amino)-5-(5-fluorO4-methylpyrimidin-2-yl)pyridin-2-yl)acetamide]: the IC50 at JH2 domain of human Tyk2 and at Tyk2 was 10 to 100 nM each time.

For `CC(=O)Nc1cc(Nc2cc(C)nc(C(C)(F)F)n2)c(-c2cncc(CN(C)C)n2)cn1` [Example 675, N-(4-((2-(1,1-difluoroethyl)-6-methylpyrimidin-4-yl)amino)-5-(6-((dimethylamino)methyl)pyrazin-2-yl)pyridin-2-yl)acetamide], the IC50 is no more than 10 nM on JH2 domain of human Tyk2 and 100 to 1000 nM at Tyk2.

As to `CC(=O)Nc1cc(Nc2cc(C)nc(C(C)(F)F)n2)c(-c2ccc3c(n2)CCC3=O)cn1` [Example 677, N-(4-((2-(1,1-difluoroethyl)-6-methylpyrimidin-4-yl)amino)-5-(5-oxO6,7-dihydrO5H-cyclopenta[b]pyridin-2-yl)pyridin-2-yl)acetamide], the 50% inhibitory concentration (IC50) on JH2 domain of human Tyk2 and against Tyk2 was no more than 10 nM in each case.

In the case of `CC(=O)Nc1cc(Nc2cc(C)nc(C(C)(F)F)n2)c(-c2ccc3nccn3n2)cn1` [Example 680, N-(4-((2-(1,1-difluoroethyl)-6-methylpyrimidin-4-yl)amino)-5-(imidazo[1,2-b]pyridazin-6-yl)pyridin-2-yl)acetamide], the values for the half-inhibitory concentration (IC50) at JH2 domain of human Tyk2 and at Tyk2 were no more than 10 nM and 10 to 100 nM, respectively.

As for `CC(=O)Nc1cc(Nc2ccnc(C(C)(F)F)n2)c(-c2ncccn2)cn1` [Example 685, N-(4-((2-(1,1-difluoroethyl)pyrimidin-4-yl)amino)-5-(pyrimidin-2-yl)pyridin-2-yl)acetamide], the half-inhibitory concentration (IC50) at JH2 domain of human Tyk2 was no more than 10 nM; against Tyk2, 10 to 100 nM.

Regarding `COc1ncc(-c2cnc(NC(C)=O)cc2Nc2ccnc(C(C)(F)F)n2)nc1OC` [Example 686, N-(4-((2-(1,1-difluoroethyl)pyrimidin-4-yl)amino)-5-(5,6-dimethoxypyrazin-2-yl)pyridin-2-yl)acetamide], the IC50 is 10 to 100 nM on JH2 domain of human Tyk2 and no less than 1000 nM against Tyk2.

In the case of `COc1cc(-c2cnc(NC(C)=O)cc2Nc2ccnc(C(C)(F)F)n2)nc(OC)n1` [Example 687, N-(4-((2-(1,1-difluoroethyl)pyrimidin-4-yl)amino)-5-(2,6-dimethoxypyrimidin-4-yl)pyridin-2-yl)acetamide], the IC50 on JH2 domain of human Tyk2 is no more than 10 nM; at Tyk2 it was 10 to 100 nM.

With `CC(=O)Nc1cc(Nc2ccnc(C(C)(F)F)n2)c(-c2cncc(CC#N)n2)cn1` [Example 688, N-(5-(6-(cyanomethyl)pyrazin-2-yl)-4-((2-(1,1-difluoroethyl)pyrimidin-4-yl)amino)pyridin-2-yl)acetamide], the IC50 on JH2 domain of human Tyk2 was no more than 10 nM; against Tyk2 it was 100 to 1000 nM.

In the case of `CC(=O)Nc1cc(Nc2ccnc(C(C)(F)F)n2)c(-c2cncc(OC(F)F)n2)cn1` [Example 689, N-(4-((2-(1,1-difluoroethyl)pyrimidin-4-yl)amino)-5-(6-(difluoromethoxy)pyrazin-2-yl)pyridin-2-yl)acetamide], the half-inhibitory concentration (IC50) at JH2 domain of human Tyk2 is 10 to 100 nM; against Tyk2 it was no less than 1000 nM.

For the compound `CC(=O)Nc1cc(Nc2ccnc(C(C)(F)F)n2)c(-c2cncc(OC3COC3)n2)cn1` [Example 690, N-(4-((2-(1,1-difluoroethyl)pyrimidin-4-yl)amino)-5-(6-(oxetan-3-yloxy)pyrazin-2-yl)pyridin-2-yl)acetamide], the half-inhibitory concentration (IC50) on JH2 domain of human Tyk2 and at Tyk2 was 10 to 100 nM each time.

The record behind these values is patent US20260028365A1 (BIOGEN MA INC., priority 2022, published 2026).
